± gives the standard deviation of the averaged measurements.
Experiments:
Settings in all cases: 72 h
Caco-2 [1] = assay: relative viability EC50 (midpoint between 100% and the lowest measured viability); higher = less toxic
Vero E6 [2] = assay: as above
HepG2 [3] = assay: as above
Calu-3 [4] = assay: as above
U2OS [5] = assay: as above
Caco-2 [6] = assay: cell viability relative to DMSO; higher = less toxic
Vero E6 [7] = assay: as above
HepG2 [8] = assay: as above
Calu-3 [9] = assay: as above
U2OS [10] = assay: as above
Caco-2 [11] = assay: drug sensitivity score (DSS) for viability; higher = more toxic; extreme values may be limits of the assay
Vero E6 [12] = assay: as above
HepG2 [13] = assay: as above
Calu-3 [14] = assay: as above
U2OS [15] = assay: as above

SMILES | relative viability EC50 (Caco-2 [1]) [µM] | relative viability EC50 (Vero E6 [2]) [µM] | relative viability EC50 (HepG2 [3]) [µM] | relative viability EC50 (Calu-3 [4]) [µM] | relative viability EC50 (U2OS [5]) [µM] | cell viability (Caco-2 [6]; 1 nM) [%] | cell viability (Caco-2 [6]; 10 nM) [%] | cell viability (Caco-2 [6]; 100 nM) [%] | cell viability (Caco-2 [6]; 1000 nM) [%] | cell viability (Caco-2 [6]; 10000 nM) [%] | cell viability (Vero E6 [7]; 1 nM) [%] | cell viability (Vero E6 [7]; 10 nM) [%] | cell viability (Vero E6 [7]; 100 nM) [%] | cell viability (Vero E6 [7]; 1000 nM) [%] | cell viability (Vero E6 [7]; 10000 nM) [%] | cell viability (HepG2 [8]; 1 nM) [%] | cell viability (HepG2 [8]; 10 nM) [%] | cell viability (HepG2 [8]; 100 nM) [%] | cell viability (HepG2 [8]; 1000 nM) [%] | cell viability (HepG2 [8]; 10000 nM) [%] | cell viability (Calu-3 [9]; 1 nM) [%] | cell viability (Calu-3 [9]; 10 nM) [%] | cell viability (Calu-3 [9]; 100 nM) [%] | cell viability (Calu-3 [9]; 1000 nM) [%] | cell viability (Calu-3 [9]; 10000 nM) [%] | cell viability (U2OS [10]; 1 nM) [%] | cell viability (U2OS [10]; 10 nM) [%] | cell viability (U2OS [10]; 100 nM) [%] | cell viability (U2OS [10]; 1000 nM) [%] | cell viability (U2OS [10]; 10000 nM) [%] | drug sensitivity score (Caco-2 [11]) | drug sensitivity score (Vero E6 [12]) | drug sensitivity score (HepG2 [13]) | drug sensitivity score (Calu-3 [14]) | drug sensitivity score (U2OS [15])
CC(C)C[C@H](NC(=O)N1CCCCCC1)C(=O)N[C@H](Cc1cn(C)c2ccccc12)C(=O)N[C@H](Cc1ccccn1)C(=O)O | > 10 | > 10 | > 10 | > 10 | > 10 | 100 | 82.5 | 92.1 | 99.9 | 91.2 | 95 | 97 | 100 | 98.9 | 98.5 | 94.5 | 111 | 99 | 101 | 89.8 | 109 | 95.2 | 97.9 | 106 | 112 | 99.1 | 94.4 | 96.4 | 99 | 97.9 | 0 | 0 | 0 | 0 | 0
CCCCCCCCC(=O)N[C@H](CN1CCCC1)[C@H](O)c1ccc2c(c1)OCCO2 | > 10 | > 10 | > 10 | > 10 | > 10 | 101 | 94.9 | 102 | 111 | 98.9 | 91.9 | 97.2 | 87.7 | 90.4 | 95.4 | 96.8 | 105 | 105 | 106 | 104 | 109 | 94.9 | 92.2 | 92 | 94.8 | 101 | 102 | 105 | 98.5 | 102 | 0 | 0 | 0 | 0 | 0
CCCCN1CCC(CCC(=O)c2cc(Cl)c(N)cc2OC)CC1 | > 10 | > 10 | > 10 | > 10 | > 10 | 104 | 100 | 97.3 | 92.7 | 95.2 | 101 | 102 | 99.2 | 101 | 94.1 | 95.5 | 98.2 | 96.9 | 82.8 | 83.5 | 101 | 99.5 | 101 | 98.3 | 109 | 104 | 93.6 | 95.8 | 92.7 | 94.1 | 0 | 0 | 2.4 | 0 | 0
CCCCOCCOc1nc(-c2ccc(C(=O)O)c(F)c2)sc1C | > 10 | > 10 | > 10 | > 10 | > 10 | 94.1 | 97.2 | 94.6 | 100 | 82 | 100 | 99.7 | 97.5 | 99.9 | 90.8 | 97.5 | 104 | 105 | 102 | 102 | 109 | 104 | 109 | 89.8 | 84.8 | 103 | 102 | 96.5 | 89.6 | 90.1 | 0.4 | 0 | 0 | 1 | 0.1
CCOc1c2c(c(OCC)c3ccccc13)C(=O)N(c1ccc(CC(=O)NS(=O)(=O)c3ccccc3)cc1)C2 | > 10 | > 10 | > 10 | > 10 | > 10 | 96.3 | 94.8 | 97.7 | 90.3 | 89.8 | 96 | 95.1 | 97.9 | 89.1 | 101 | 97.6 | 87 | 104 | 93.1 | 104 | 94 | 98.6 | 102 | 98.1 | 98.2 | 99.4 | 100 | 96.4 | 98.9 | 97.2 | 0 | 0 | 0 | 0 | 0
CC[C@@H](c1ccc(F)c(F)c1)n1c(C(=O)OC)c(-c2ccno2)[nH]c1=S | > 10 | > 10 | > 10 | > 10 | > 10 | 97.9 | 98.3 | 98.4 | 96.9 | 94.2 | 103 | 95.4 | 97.8 | 99.9 | 96.7 | 115 | 98.8 | 93.3 | 99.7 | 90.4 | 96.1 | 95.1 | 98.6 | 91.3 | 99.8 | 99.7 | 94 | 98.9 | 96 | 95.7 | 0 | 0 | 0 | 0 | 0
CN(C)C(=O)[C@H](O)[C@H](Cc1ccccc1)NC(=O)c1cc2cc(Cl)ccc2[nH]1 | > 10 | > 10 | > 10 | > 10 | > 10 | 87.2 | 97 | 96.2 | 106 | 96.8 | 108 | 94.6 | 102 | 98.3 | 106 | 103 | 96 | 106 | 105 | 106 | 96.2 | 104 | 97 | 102 | 102 | 95.4 | 102 | 90.5 | 95.3 | 97 | 0 | 0 | 0 | 0 | 0
CN1C(=O)N(c2cc(Cl)cc(Cl)c2)C(=O)[C@]12CN(c1ccc(C(=O)O)cn1)C[C@H]2c1ccc(C#N)cc1 | > 10 | > 10 | > 10 | > 10 | > 10 | 93.9 | 98.4 | 97.5 | 89 | 97.3 | 99.4 | 102 | 101 | 93.7 | 103 | 104 | 93.1 | 91.5 | 96.9 | 106 | 104 | 90.8 | 93.7 | 111 | 107 | 98.8 | 96.5 | 100 | 101 | 94.4 | 0 | 0 | 0 | 0 | 0
CN1CCN(c2nc3ccccc3nc2Cl)CC1 | > 10 | > 10 | > 10 | > 10 | > 10 | 89.4 | 90.5 | 98.3 | 88.4 | 91.6 | 101 | 102 | 103 | 94.2 | 97.5 | 97.2 | 92.9 | 104 | 93 | 95.9 | 93.4 | 105 | 106 | 92.4 | 98.3 | 95.9 | 97.6 | 99 | 103 | 96.3 | 0 | 0 | 0 | 0 | 0
Cc1c(Cc2ccc3ccccc3n2)c2cc(F)ccc2n1CC(=O)O | > 10 | > 10 | > 10 | > 10 | > 10 | 94.6 | 99.4 | 98.7 | 98.4 | 109 | 102 | 96.7 | 99.5 | 97.8 | 101 | 119 | 96.9 | 109 | 108 | 105 | 95.8 | 108 | 96.8 | 110 | 111 | 94.7 | 101 | 95.4 | 97.9 | 108 | 0 | 0 | 0 | 0 | 0
NC(=O)CCCCn1ccc(/N=C(\N)NCC(F)(F)F)n1 | > 10 | > 10 | > 10 | > 10 | > 10 | 98.8 | 97.8 | 104 | 92.6 | 97.6 | 106 | 103 | 104 | 102 | 99.7 | 103 | 97.7 | 98.1 | 105 | 105 | 110 | 96.5 | 107 | 99.4 | 102 | 98.8 | 104 | 104 | 99.9 | 99.5 | 0 | 0 | 0 | 0 | 0
Nc1c(S(=O)(=O)O)cc(Nc2cccc3ccccc23)c2c1C(=O)c1ccccc1C2=O | > 10 | > 10 | > 10 | > 10 | > 10 | 91.3 | 97.8 | 101 | 89.7 | 90.1 | 94.2 | 98.3 | 97.3 | 93.7 | 86.7 | 103 | 91.1 | 91.1 | 90 | 86.8 | 101 | 95.8 | 91.5 | 101 | 93.2 | 94.1 | 98.4 | 95.3 | 95.4 | 81.8 | 0.1 | 0 | 1 | 0 | 0.8
O=C(Nc1ccccc1)Nc1ccc(-c2ccc(C(=O)[C@@H]3CCC[C@@H]3C(=O)O)cc2)cc1 | > 10 | > 10 | > 10 | > 10 | > 10 | 99.05 ± 0.78 | 95.8 ± 1.6 | 94.35 ± 0.35 | 97 ± 13 | 85.6 ± 0.28 | 101 ± 3.9 | 98.7 ± 1.1 | 98.45 ± 0.35 | 94.3 ± 2.8 | 95.1 ± 0.57 | 105.2 ± 0.49 | 96.4 ± 1.4 | 95.5 ± 10 | 92.2 ± 7 | 97.1 ± 7.3 | 111 ± 3 | 103.8 ± 0.85 | 97.2 ± 1.4 | 98.2 ± 5.6 | 108 ± 1.9 | 98.5 ± 1.5 | 98.6 ± 5.8 | 100 ± 1.3 | 101 ± 2 | 94.2 ± 2.1 | 0.4 ± 0.42 | 0 | 0.35 ± 0.49 | 0 | 0
O=C(O)CCc1ccc(NCc2cccc3c2CCCN3CCOc2ccccc2)cc1F | > 10 | > 10 | > 10 | > 10 | > 10 | 106 | 96.2 | 101 | 106 | 96.4 | 97.5 | 98.2 | 97.4 | 98.6 | 96 | 97.9 | 101 | 100 | 100 | 95 | 93.2 | 97.4 | 91.6 | 94.8 | 99.6 | 101 | 96.5 | 99 | 97.4 | 104 | 0 | 0 | 0 | 0 | 0
